Target: T1, hMAGL (Homo sapiens, UniProt Q99685)
T1 sequence (Q99685 1-303): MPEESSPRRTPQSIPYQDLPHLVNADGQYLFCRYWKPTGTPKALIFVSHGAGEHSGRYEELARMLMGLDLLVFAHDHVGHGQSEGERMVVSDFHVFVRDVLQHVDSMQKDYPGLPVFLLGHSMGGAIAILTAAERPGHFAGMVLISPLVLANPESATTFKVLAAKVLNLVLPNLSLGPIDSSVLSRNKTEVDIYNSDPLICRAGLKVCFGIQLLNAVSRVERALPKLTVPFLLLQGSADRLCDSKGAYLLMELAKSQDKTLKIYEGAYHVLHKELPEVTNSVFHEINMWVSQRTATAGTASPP
Assay: 2-AG assay: MAGL inhibition, hydrolysis of 2-arachidonoylglycerol to arachidonic acid followed by mass spectrometry
Assay type: biochemical
Protocol: Compounds of formula (I) were profiled for MAGL inhibitory activity by determining the enzymatic activity by following the hydrolysis of the natural substrate 2-arachidonoylglycerol (2-AG) resulting in arachidonic acid, which can be followed by mass spectrometry. This assay is hereinafter abbreviated “2-AG assay”. The 2-AG assay was carried out in 384 well polypropylene assay plates. […] Compound dilutions were added to MAGL protein in assay buffer (50 mM TRIS, 1 mM EDTA, 0.01% (v/v) Tween-20, 2.5% (v/v) DMSO). After shaking, the plate was incubated for 15 min at RT. To start the reaction, 2-arachidonoylglycerol in assay buffer was added. The final concentrations in the assay was […] for MAGL protein and 8 μM 2-arachidonoylglyerol. After shaking and 30 min incubation at RT, the reaction was quenched by the addition of two assay volumes of acetonitrile containing 4 μM of d8-arachidonic acid. The amount of arachidonic acid formed was traced by an online SPE system (Agilent Rapidfire) coupled to a triple quadrupole mass spectrometer. A C18 SPE cartridge (Agilent G9205A) was used in an acetonitrile/water liquid setup. […] The activity of the compounds was calculated based on the ratio of intensities [arachidonic acid/d8-arachidonic acid].

Row | SMILES | IC50
1 | O=C(N1CC2(CC(Cc3nnc(C4(C(F)(F)F)CC4)o3)C2)C1)N1CC2(CC(n3cnc(C4CC4)n3)C2)C1 [Example 8] | 0.7 nM
2 | O=C(N1CC2(CC(Cn3cc(C(F)(F)F)cn3)C2)C1)N1CC2(CC(n3cnc(C4(O)CC4)n3)C2)C1 [Example 12] | 8.67 nM
3 | Cc1cc(C2CC2)n(CC2CC3(C2)CN(C(=O)N2CC4(CC(n5cnc(C(F)(F)F)n5)C4)C2)C3)n1 [Example 131, [6-[(5-cyclopropyl-3-methyl-pyrazol-1-yl)methyl]-2-azaspiro[3.3]heptan-2-yl]-[6-[3-(trifluoromethyl)-1,2,4-triazol-1-yl]-2-azaspiro[3.3]heptan-2-yl]methanone] | 1.08 nM
4 | O=C(N1CC2(CC(n3cnc(C(F)(F)F)n3)C2)C1)N1CC2(CN(Cc3ccnn3CC(F)F)C2)C1 [Example 260, [6-[[2-(2,2-difluoroethyl)pyrazol-3-yl]methyl]-2,6-diazaspiro[3.3]heptan-2-yl]-[6-[3-(trifluoromethyl)-1,2,4-triazol-1-yl]-2-azaspiro[3.3]heptan-2-yl]methanone] | 167 nM
5 | O=C(N1CC2(CC(Cc3n[nH]c(C(F)(F)F)n3)C2)C1)N1CC2(CC(n3cnc(C4(O)CC4)n3)C2)C1 [Example 11, [6-[3-(1-hydroxycyclopropyl)-1,2,4-triazol-1-yl]-2-azaspiro[3.3]heptan-2-yl]-[6-[[5-(trifluoromethyl)-1H-1,2,4-triazol-3-yl]methyl]-2-azaspiro[3.3]heptan-2-yl]methanone] | 20.4 nM
6 | O=C(N1CC2(CC(n3cnc(C(F)(F)F)n3)C2)C1)N1CC2(CN(Cc3snnc3C3CCC3)C2)C1 [Example 76, [6-[(4-cyclobutylthiadiazol-5-yl)methyl]-2,6-diazaspiro[3.3]heptan-2-yl]-[6-[3-(trifluoromethyl)-1,2,4-triazol-1-yl]-2-azaspiro[3.3]heptan-2-yl]methanone] | 5.73 nM
7 | O=C(N1CC2(CC(Cc3cnn(C(F)(F)F)c3)C2)C1)N1CC2(CC(n3cnc(C4(O)CC4)n3)C2)C1 [Example 14] | 6.35 nM
8 | O=C(N1CC2(CC(Cc3nc(CC(F)(F)F)n[nH]3)C2)C1)N1CC2(CC(n3cnc(C4(O)CC4)n3)C2)C1 [Example 205, [6-[3-(1-hydroxycyclopropyl)-1,2,4-triazol-1-yl]-2-azaspiro[3.3]heptan-2-yl]-[6-[[3-(2,2,2-trifluoroethyl)-1H-1,2,4-triazol-5-yl]methyl]-2-azaspiro[3.3]heptan-2-yl]methanone] | 72.9 nM
9 | Cn1cnc(C#N)c1CN1CC2(C1)CN(C(=O)N1CC3(CC(n4cnc(C(F)(F)F)n4)C3)C1)C2 [Example 280, 1-methyl-5-[[2-[6-[3-(trifluoromethyl)-1,2,4-triazol-1-yl]-2-azaspiro[3.3]heptane-2-carbonyl]-2,6-diazaspiro[3.3]heptan-6-yl]methyl]imidazole-4-carbonitrile] | 636 nM
10 | O=C(N1CC2(CC(Cc3cc(C(F)(F)F)n[nH]3)C2)C1)N1CC2(CC(n3cnc(C(F)F)n3)C2)C1 [Example 343, [6-[3-(difluoromethyl)-1,2,4-triazol-1-yl]-2-azaspiro[3.3]heptan-2-yl]-[6-[[3-(trifluoromethyl)-1H-pyrazol-5-yl]methyl]-2-azaspiro[3.3]heptan-2-yl]methanone] | 2.62 nM
11 | Cn1nc(C(F)(F)F)cc1CN1CCC2(CC1)CN(C(=O)N1CC3(CC(c4cc(C5CC5)n[nH]4)C3)C1)C2 [Example 24] | 6.51 nM
12 | O=C(N1CC2(CC(n3cnc(C(F)(F)F)n3)C2)C1)N1CC2(CN(Cc3cc[nH]n3)C2)C1 [Example 284, [6-(1H-pyrazol-3-ylmethyl)-2,6-diazaspiro[3.3]heptan-2-yl]-[6-[3-(trifluoromethyl)-1,2,4-triazol-1-yl]-2-azaspiro[3.3]heptan-2-yl]methanone] | 2310 nM
13 | Cc1cc(C(F)(F)F)nn1CC1CC2(C1)CN(C(=O)N1CC3(CC(n4cnc(C5(O)CC5)n4)C3)C1)C2 [Example 70] | 131 nM
14 | CS(=O)(=O)c1cnn(CC2CC3(C2)CN(C(=O)N2CC4(CC(n5cnc(C6CC6)n5)C4)C2)C3)c1 [Example 332, [6-(3-cyclopropyl-1,2,4-triazol-1-yl)-2-azaspiro[3.3]heptan-2-yl]-[6-[(4-mesylpyrazol-1-yl)methyl]-2-azaspiro[3.3]heptan-2-yl]methanone] | 11.5 nM
15 | O=C(N1CC2(CC(Cc3cn(C4CC4)nc3C(F)(F)F)C2)C1)N1CC2(CC(n3cnc(C4(O)CC4)n3)C2)C1 [Example 63, [6-[[1-cyclopropyl-3-(trifluoromethyl)pyrazol-4-yl]methyl]-2-azaspiro[3.3]heptan-2-yl]-[6-[3-(1-hydroxycyclopropyl)-1,2,4-triazol-1-yl]-2-azaspiro[3.3]heptan-2-yl]methanone] | 18.3 nM
16 | O=C(N1CC2(CCN(Cc3nc(C(F)(F)F)cs3)CC2)C1)N1CC2(CC(n3cnc(C4CC4)n3)C2)C1 [Example 177, [6-(3-cyclopropyl-1,2,4-triazol-1-yl)-2-azaspiro[3.3]heptan-2-yl]-[7-[[4-(trifluoromethyl)thiazol-2-yl]methyl]-2,7-diazaspiro[3.5]nonan-2-yl]methanone] | 9.83 nM

More lines, now with the values ahead:

Row | IC50 | SMILES
17 | 0.64 nM | CC(C)(C)c1csc(CN2CC3(C2)CN(C(=O)N2CC4(CC(n5cnc(C6CC6)n5)C4)C2)C3)n1 [Example 201, [6-[(4-tert-butylthiazol-2-yl)methyl]-2,6-diazaspiro[3.3]heptan-2-yl]-[6-(3-cyclopropyl-1,2,4-triazol-1-yl)-2-azaspiro[3.3]heptan-2-yl]methanone]
18 | 32.6 nM | O=C(N1CC2(CC(n3cnc(C4CC4)n3)C2)C1)N1CC2(CN(Cc3ncoc3C(F)(F)F)C2)C1 [Example 221, [6-(3-cyclopropyl-1,2,4-triazol-1-yl)-2-azaspiro[3.3]heptan-2-yl]-[6-[[5-(trifluoromethyl)oxazol-4-yl]methyl]-2,6-diazaspiro[3.3]heptan-2-yl]methanone]
19 | 33.9 nM | O=C(N1CC2(CC(n3cnc(C4CC4)n3)C2)C1)N1CC2(CN(Cc3cnn(C(F)(F)F)c3)C2)C1 [Example 182, [6-(3-cyclopropyl-1,2,4-triazol-1-yl)-2-azaspiro[3.3]heptan-2-yl]-[6-[[1-(trifluoromethyl)pyrazol-4-yl]methyl]-2,6-diazaspiro[3.3]heptan-2-yl]methanone]
20 | 69.2 nM | O=C(N1CC2(CC(n3cnc(C4CC4)n3)C2)C1)N1CC2(CN(Cc3ccnn3CC(F)(F)F)C2)C1 [Example 223, [6-(3-cyclopropyl-1,2,4-triazol-1-yl)-2-azaspiro[3.3]heptan-2-yl]-[6-[[2-(2,2,2-trifluoroethyl)pyrazol-3-yl]methyl]-2,6-diazaspiro[3.3]heptan-2-yl]methanone]
21 | 42.8 nM | O=C(N1CC2(CC(n3cnc(C4CC4)n3)C2)C1)N1CC2(CN(Cc3nc[nH]c3C(F)(F)F)C2)C1 [Example 238, [6-(3-cyclopropyl-1,2,4-triazol-1-yl)-2-azaspiro[3.3]heptan-2-yl]-[6-[[5-(trifluoromethyl)-1H-imidazol-4-yl]methyl]-2,6-diazaspiro[3.3]heptan-2-yl]methanone]
22 | 36.3 nM | O=C(N1CC2(CC(n3cnc(C4CC4)n3)C2)C1)N1CC2(CN(Cc3noc(C(F)(F)F)n3)C2)C1 [Example 323, [6-(3-cyclopropyl-1,2,4-triazol-1-yl)-2-azaspiro[3.3]heptan-2-yl]-[6-[[5-(trifluoromethyl)-1,2,4-oxadiazol-3-yl]methyl]-2,6-diazaspiro[3.3]heptan-2-yl]methanone]
23 | 328 nM | O=C(N1CC2(CC(n3cnc(C4CC4)n3)C2)C1)N1CC2(CN(Cc3cnn(CC(F)(F)F)c3)C2)C1 [Example 110, [6-(3-cyclopropyl-1,2,4-triazol-1-yl)-2-azaspiro[3.3]heptan-2-yl]-[6-[[1-(2,2,2-trifluoroethyl)pyrazol-4-yl]methyl]-2,6-diazaspiro[3.3]heptan-2-yl]methanone]
24 | 0.13 nM | O=C(N1CC2(CC(Cc3cnn4c(C(F)(F)F)ccnc34)C2)C1)N1CC2(CC(n3cnc(C4CC4)n3)C2)C1 [Example 359, [6-(3-cyclopropyl-1,2,4-triazol-1-yl)-2-azaspiro[3.3]heptan-2-yl]-[6-[[7-(trifluoromethyl)pyrazolo[1,5-a]pyrimidin-3-yl]methyl]-2-azaspiro[3.3]heptan-2-yl]methanone]
25 | 439 nM | O=C(N1CC2(CC(n3cnc(C(F)(F)F)n3)C2)C1)N1CC2(CN(Cc3cnn(CC(F)(F)F)n3)C2)C1 [Example 195, [6-[[2-(2,2,2-trifluoroethyl)triazol-4-yl]methyl]-2,6-diazaspiro[3.3]heptan-2-yl]-[6-[3-(trifluoromethyl)-1,2,4-triazol-1-yl]-2-azaspiro[3.3]heptan-2-yl]methanone]
26 | 46.7 nM | Cn1c(CN2CC3(C2)CN(C(=O)N2CC4(CC(n5cnc(C6CC6)n5)C4)C2)C3)nnc1C(F)(F)F [Example 322, [6-(3-cyclopropyl-1,2,4-triazol-1-yl)-2-azaspiro[3.3]heptan-2-yl]-[6-[[4-methyl-5-(trifluoromethyl)-1,2,4-triazol-3-yl]methyl]-2,6-diazaspiro[3.3]heptan-2-yl]methanone]

Source: US20260374756A1, “HETEROCYCLIC COMPOUNDS AS INHIBITORS OF MONOACYLGLYCEROL LIPASE (MAGL)” (Hoffmann-La Roche Inc., priority 2022, published 2026)
